Reference: the NIST ThermoML archive (doi:10.1021/je050440b)
Numbers after ± are expanded uncertainties.

Experiment: activity coefficient (dimensionless); of the first substance listed, at infinite dilution; xn = mol fraction of the nth substance listed
Details: Liquid, Chromatography, x1 = 0

What does the source list for `CCCCCCO` [hexan-1-ol] + CCCC[N+](C)(C)C.O=S(=O)([N-]S(=O)(=O)C(F)(F)F)C(F)(F)F?
activity coefficient (343.65 K): 4.02 ± 0.27; activity coefficient (354.05 K): 3.58 ± 0.24; activity coefficient (364.45 K): 3.24 ± 0.22; activity coefficient (385.55 K): 2.67 ± 0.18

For `CCCCCC=O` [hexanal] + CCCC[N+](C)(C)C.O=S(=O)([N-]S(=O)(=O)C(F)(F)F)C(F)(F)F, which activity coefficient (322.75 K) is on record?
Its activity coefficient is 1.92 ± 0.13.

And the activity coefficient (333.25 K)?
Its activity coefficient is 1.9 ± 0.13.

And the activity coefficient (343.55 K)?
Its activity coefficient is 1.88 ± 0.13.

What about the activity coefficient (354.15 K) of the same compound?
The activity coefficient was 1.85 ± 0.12.

And the activity coefficient (364.65 K)?
Its activity coefficient is 1.84 ± 0.12.

For `CCCCCC` [hexane] + CCCC[N+](C)(C)C.O=S(=O)([N-]S(=O)(=O)C(F)(F)F)C(F)(F)F, which activity coefficient (301.85 K) is on record?
Its activity coefficient is 19.4 ± 1.3.

And the activity coefficient (312.35 K)?
The activity coefficient was 18.1 ± 1.2.

And the activity coefficient (322.85 K)?
The activity coefficient was 17.6 ± 1.2.

And the activity coefficient (333.35 K)?
The activity coefficient was 16.3 ± 1.1.

Which results are given for `CO` [methanol] + CCCC[N+](C)(C)C.O=S(=O)([N-]S(=O)(=O)C(F)(F)F)C(F)(F)F?
activity coefficient (303.95 K): 1.55 ± 0.1; activity coefficient (312.05 K): 1.42 ± 0.09; activity coefficient (333.25 K): 1.15 ± 0.07; activity coefficient (343.65 K): 1.02 ± 0.06

For `CCCC(=O)OC` [methyl butanoate] + CCCC[N+](C)(C)C.O=S(=O)([N-]S(=O)(=O)C(F)(F)F)C(F)(F)F, which activity coefficient (311.65 K) is on record?
The activity coefficient was 1.31 ± 0.09.

And the activity coefficient (333.15 K)?
Its activity coefficient is 1.26 ± 0.08.

And the activity coefficient (364.45 K)?
The activity coefficient was 1.2 ± 0.08.

What does the source list for `CCCCCCC(=O)OC` [methyl heptanoate] + CCCC[N+](C)(C)C.O=S(=O)([N-]S(=O)(=O)C(F)(F)F)C(F)(F)F?
activity coefficient (343.55 K): 3.18 ± 0.22; activity coefficient (354.05 K): 3.01 ± 0.2; activity coefficient (364.55 K): 2.81 ± 0.19; activity coefficient (374.95 K): 2.64 ± 0.18; activity coefficient (385.45 K): 2.43 ± 0.17

Which activity coefficient (343.65 K) does the source give for `CCCCCC(=O)OC` [methyl hexanoate] + CCCC[N+](C)(C)C.O=S(=O)([N-]S(=O)(=O)C(F)(F)F)C(F)(F)F here?
Its activity coefficient is 2.43 ± 0.17.

What about the activity coefficient (354.05 K) of the same compound?
Its activity coefficient is 2.33 ± 0.16.

What about the activity coefficient (364.55 K) of the same compound?
Its activity coefficient is 2.19 ± 0.15.

And the activity coefficient (374.95 K)?
Its activity coefficient is 2.08 ± 0.14.

With `CCCCC(=O)OC` [methyl pentanoate] + CCCC[N+](C)(C)C.O=S(=O)([N-]S(=O)(=O)C(F)(F)F)C(F)(F)F as the compound, how does the activity coefficient (322.75 K) read?
Its activity coefficient is 1.66 ± 0.11.

What about the activity coefficient (333.15 K) of the same compound?
Its activity coefficient is 1.63 ± 0.11.

And the activity coefficient (364.55 K)?
Its activity coefficient is 1.44 ± 0.09.

And the activity coefficient (374.95 K)?
Its activity coefficient is 1.33 ± 0.09.

With `CCC(=O)OC` [methyl propanoate] + CCCC[N+](C)(C)C.O=S(=O)([N-]S(=O)(=O)C(F)(F)F)C(F)(F)F as the compound, how does the activity coefficient (311.65 K) read?
The activity coefficient was 0.94 ± 0.06.

And the activity coefficient (333.15 K)?
Its activity coefficient is 0.92 ± 0.06.

And the activity coefficient (343.75 K)?
Its activity coefficient is 0.91 ± 0.06.

What does the source list for `CCCCCCCCC` [nonane] + CCCC[N+](C)(C)C.O=S(=O)([N-]S(=O)(=O)C(F)(F)F)C(F)(F)F?
activity coefficient (301.65 K): 67.5 ± 4.6; activity coefficient (312.15 K): 59.8 ± 4.1; activity coefficient (322.75 K): 52.6 ± 3.6; activity coefficient (333.25 K): 47.3 ± 3.2; activity coefficient (343.65 K): 43.2 ± 3; activity coefficient (354.05 K): 39 ± 2.7; activity coefficient (364.55 K): 36 ± 2.5; activity coefficient (374.95 K): 32.3 ± 2.2

Which activity coefficient (306.75 K) does the source give for `C=CCCCCCC` [oct-1-ene] + CCCC[N+](C)(C)C.O=S(=O)([N-]S(=O)(=O)C(F)(F)F)C(F)(F)F here?
The activity coefficient was 22.9 ± 1.6.

What about the activity coefficient (312.98 K) of the same compound?
Its activity coefficient is 22 ± 1.5.

What about the activity coefficient (322.55 K) of the same compound?
The activity coefficient was 20.4 ± 1.4.

What about the activity coefficient (333.25 K) of the same compound?
The activity coefficient was 19 ± 1.3.

What about the activity coefficient (343.65 K) of the same compound?
The activity coefficient was 17.2 ± 1.2.

What about the activity coefficient (354.05 K) of the same compound?
Its activity coefficient is 16.2 ± 1.1.

What about the activity coefficient (364.55 K) of the same compound?
Its activity coefficient is 15.1 ± 1.

What does the source list for `CCCCCCCC=O` [octanal] + CCCC[N+](C)(C)C.O=S(=O)([N-]S(=O)(=O)C(F)(F)F)C(F)(F)F?
activity coefficient (364.64 K): 3.53 ± 0.24; activity coefficient (374.95 K): 3.48 ± 0.24; activity coefficient (385.45 K): 3.44 ± 0.23; activity coefficient (395.95 K): 3.37 ± 0.23

Which results are given for `CCCCCCCC` [octane] + CCCC[N+](C)(C)C.O=S(=O)([N-]S(=O)(=O)C(F)(F)F)C(F)(F)F?
activity coefficient (301.62 K): 45.4 ± 3.1; activity coefficient (312.15 K): 41 ± 2.8; activity coefficient (322.75 K): 37.2 ± 2.5; activity coefficient (333.25 K): 34.1 ± 2.3

For `CCCCCO` [pentan-1-ol] + CCCC[N+](C)(C)C.O=S(=O)([N-]S(=O)(=O)C(F)(F)F)C(F)(F)F, which activity coefficient (322.85 K) is on record?
Its activity coefficient is 3.85 ± 0.26.

And the activity coefficient (333.15 K)?
Its activity coefficient is 3.39 ± 0.23.

What about the activity coefficient (343.65 K) of the same compound?
Its activity coefficient is 3.01 ± 0.2.

And the activity coefficient (354.05 K)?
Its activity coefficient is 2.72 ± 0.19.

And the activity coefficient (364.45 K)?
The activity coefficient was 2.45 ± 0.17.

With `CCCCC=O` [pentanal] + CCCC[N+](C)(C)C.O=S(=O)([N-]S(=O)(=O)C(F)(F)F)C(F)(F)F as the compound, how does the activity coefficient (301.75 K) read?
Its activity coefficient is 1.71 ± 0.11.

And the activity coefficient (312.25 K)?
The activity coefficient was 1.65 ± 0.11.

What about the activity coefficient (322.75 K) of the same compound?
The activity coefficient was 1.62 ± 0.11.

What about the activity coefficient (333.25 K) of the same compound?
The activity coefficient was 1.57 ± 0.1.

What about the activity coefficient (343.55 K) of the same compound?
The activity coefficient was 1.5 ± 0.1.

What about the activity coefficient (354.15 K) of the same compound?
The activity coefficient was 1.46 ± 0.1.

Which activity coefficient (301.85 K) does the source give for `CCCCC` [pentane] + CCCC[N+](C)(C)C.O=S(=O)([N-]S(=O)(=O)C(F)(F)F)C(F)(F)F here?
Its activity coefficient is 13.7 ± 0.93.

What about the activity coefficient (322.85 K) of the same compound?
The activity coefficient was 13.9 ± 0.95.

With `CCCCCc1ccccc1` [pentylbenzene] + CCCC[N+](C)(C)C.O=S(=O)([N-]S(=O)(=O)C(F)(F)F)C(F)(F)F as the compound, how does the activity coefficient (354.05 K) read?
The activity coefficient was 7.92 ± 0.54.

And the activity coefficient (364.45 K)?
Its activity coefficient is 7.69 ± 0.52.

And the activity coefficient (374.95 K)?
The activity coefficient was 7.36 ± 0.5.

And the activity coefficient (385.45 K)?
The activity coefficient was 7.07 ± 0.48.

Which activity coefficient (301.75 K) does the source give for `CCCO` [propan-1-ol] + CCCC[N+](C)(C)C.O=S(=O)([N-]S(=O)(=O)C(F)(F)F)C(F)(F)F here?
Its activity coefficient is 2.76 ± 0.19.

What about the activity coefficient (312.15 K) of the same compound?
Its activity coefficient is 2.43 ± 0.17.

And the activity coefficient (322.85 K)?
The activity coefficient was 2.14 ± 0.15.

And the activity coefficient (333.35 K)?
Its activity coefficient is 1.9 ± 0.13.

With `CC(C)O` [propan-2-ol] + CCCC[N+](C)(C)C.O=S(=O)([N-]S(=O)(=O)C(F)(F)F)C(F)(F)F as the compound, how does the activity coefficient (302.55 K) read?
The activity coefficient was 2.4 ± 0.16.

And the activity coefficient (312.15 K)?
The activity coefficient was 2.14 ± 0.15.

And the activity coefficient (322.85 K)?
Its activity coefficient is 1.89 ± 0.13.

What about the activity coefficient (333.35 K) of the same compound?
Its activity coefficient is 1.67 ± 0.11.

And the activity coefficient (343.65 K)?
The activity coefficient was 1.53 ± 0.1.

And the activity coefficient (354.05 K)?
Its activity coefficient is 1.37 ± 0.09.

For `CCC=O` [propanal] + CCCC[N+](C)(C)C.O=S(=O)([N-]S(=O)(=O)C(F)(F)F)C(F)(F)F, which activity coefficient (301.65 K) is on record?
Its activity coefficient is 0.58 ± 0.04.

And the activity coefficient (312.25 K)?
The activity coefficient was 0.57 ± 0.04.

And the activity coefficient (322.75 K)?
The activity coefficient was 0.54 ± 0.04.

What about the activity coefficient (333.25 K) of the same compound?
Its activity coefficient is 0.53 ± 0.04.

What about the activity coefficient (343.55 K) of the same compound?
The activity coefficient was 0.52 ± 0.04.

With `CCCc1ccccc1` [propylbenzene] + CCCC[N+](C)(C)C.O=S(=O)([N-]S(=O)(=O)C(F)(F)F)C(F)(F)F as the compound, how does the activity coefficient (333.25 K) read?
Its activity coefficient is 3.95 ± 0.27.

And the activity coefficient (343.65 K)?
The activity coefficient was 3.86 ± 0.26.

And the activity coefficient (354.05 K)?
The activity coefficient was 3.79 ± 0.26.

And the activity coefficient (364.45 K)?
The activity coefficient was 3.69 ± 0.25.

With `Cc1ccccc1` [toluene] + CCCC[N+](C)(C)C.O=S(=O)([N-]S(=O)(=O)C(F)(F)F)C(F)(F)F as the compound, how does the activity coefficient (322.75 K) read?
The activity coefficient was 1.73 ± 0.12.

What about the activity coefficient (333.25 K) of the same compound?
Its activity coefficient is 1.71 ± 0.11.

What about the activity coefficient (343.65 K) of the same compound?
The activity coefficient was 1.7 ± 0.11.

What about the activity coefficient (364.45 K) of the same compound?
The activity coefficient was 1.68 ± 0.11.

With `ClC(Cl)Cl` [trichloromethane] + CCCC[N+](C)(C)C.O=S(=O)([N-]S(=O)(=O)C(F)(F)F)C(F)(F)F as the compound, how does the activity coefficient (301.75 K) read?
The activity coefficient was 1.03 ± 0.06.

And the activity coefficient (312.15 K)?
Its activity coefficient is 1.04 ± 0.07.

What about the activity coefficient (333.25 K) of the same compound?
The activity coefficient was 1.04 ± 0.07.

With `CCCCCCCCCCC` [undecane] + CCCC[N+](C)(C)C.O=S(=O)([N-]S(=O)(=O)C(F)(F)F)C(F)(F)F as the compound, how does the activity coefficient (333.25 K) read?
Its activity coefficient is 94.4 ± 6.5.

What about the activity coefficient (343.65 K) of the same compound?
Its activity coefficient is 83.9 ± 5.8.

And the activity coefficient (354.05 K)?
Its activity coefficient is 73.3 ± 5.

What about the activity coefficient (364.55 K) of the same compound?
Its activity coefficient is 66.3 ± 4.5.

What about the activity coefficient (374.95 K) of the same compound?
The activity coefficient was 56 ± 3.8.
